US10093695B2, “Sterol derivative, preparation method therefor and use thereof” (Beijing Peking University WBL Biotech Co., Ltd., priority 2012, dated 2018)

Tests used:
[1] = system: mouse hepatoma cell line HepG2; test: In-vitro anti-hepatoma activity, MTT cell growth inhibition, HepG2; assay type: cell-based; conditions: mouse hepatoma cell line HepG2, 72 hours
Experimental: (§1) Inoculatecancer cells in the logarithmic phase in each well of a 96-well culture plate (2×10^4 cells/well); add the drugs until the final concentrations of the drugs are 500, 250, 125, 62.5, 31.25, 15.625 and 7.8125 μg/mL, after culturing the cancer cells for 72 hours in a cell incubator with a CO2 concentration of 5%, add 10 μL of MTT to each well, incubate the cancer cells at 37° C. in darkness for 4 hours, remove the culture solution, add 150 μL of Dimethyl Sulfoxide (DMSO) or acidified isopropyl alcohol, after oscillating for 5 minutes, measure the Optical Density (OD) value at a wavelength of 570 nm; repeat the steps above for three times; set a blank control group; the cell lines use the same culture medium, which is a RPMI1640 culture medium containing 10% of FBS and 1% of double-antibody (penicillin and streptomycin).
(§2) 3. Calculation Formula of Cell Viability Cell viability=(experimental group OD value/control group OD value)×100%.
FIG. 10 is curve of inhibitory effect of a compound with Structural Formula (II) prepared in the first embodiment on cell growth of […] hepatoma cell line HepG2. […]

[2] = system: human tissue lymphoma cells U937; test: In-vitro anti-lymphoma activity, MTT cell growth inhibition, U937; assay type: cell-based; conditions: U-937, human tissue lymphoma cells U937, 72 hours
Experimental: as §1, §2

[3] = system: mouse sarcoma cell line S180; test: In-vitro anti-cancer activity, MTT cell growth inhibition, S180; assay type: cell-based; conditions: S-180, mouse sarcoma cell line S180, 72 hours
Experimental: as §1, §2
FIG. 11 is a curve of inhibitory effect of a compound with Structural Formula (II) prepared in the first embodiment on cell growth of mouse sarcoma cell line S180.

[4] = system: human mononuclear lymphoma cells THP1; test: In-vitro anti-lymphoma activity, MTT cell growth inhibition, THP1; assay type: cell-based; conditions: THP-1, human mononuclear lymphoma cells THP1, 72 hours
Experimental: as §1, §2
FIG. 13 is a curve of inhibitory effect of a compound with Structural Formula (II) prepared in the first embodiment on cell growth of human mononuclear lymphoma cells THP1. […]

[5] = system: mouse hepatoma cell line H22; test: In-vitro anti-hepatoma activity, MTT cell growth inhibition, H22; assay type: cell-based; conditions: mouse hepatoma cell line H22, 72 hours, read-out: half maximal inhibitory concentration (IC50) value
Experimental: as §1, §2
FIG. 9 is a curve of inhibitory effect of a compound with Structural Formula (II) prepared in the first embodiment on cell growth of mouse hepatoma cell line H22. […]

[6] = system: mouse lymphoma cells YAC-1; test: In-vitro anti-lymphoma activity, MTT cell growth inhibition, YAC-1; assay type: cell-based; conditions: mouse lymphoma cells YAC-1, 72 hours
Experimental: as §1, §2
FIG. 12 is a curve of inhibitory effect of a compound with Structural Formula (II) prepared in the first embodiment on cell growth of mouse lymphoma cells YAC-1.

HMG-CoA reductase = biological target: T1, HMG-CoA reductase (Rattus norvegicus, UniProt P51639); test: HMG-CoA reductase inhibitory activity experiment (OD340 decrease, rat liver microsomes); assay type: biochemical; conditions: for Slope: decreasing speed of OD340 within 5 minutes, 37° C., blank control slope 15.6
T1 construct: take out a male rat liver, after washing the male rat liver with a KESD buffer solution; from tissue; host or cells: male rat liver microsomes
T1 sequence (P51639 1-887): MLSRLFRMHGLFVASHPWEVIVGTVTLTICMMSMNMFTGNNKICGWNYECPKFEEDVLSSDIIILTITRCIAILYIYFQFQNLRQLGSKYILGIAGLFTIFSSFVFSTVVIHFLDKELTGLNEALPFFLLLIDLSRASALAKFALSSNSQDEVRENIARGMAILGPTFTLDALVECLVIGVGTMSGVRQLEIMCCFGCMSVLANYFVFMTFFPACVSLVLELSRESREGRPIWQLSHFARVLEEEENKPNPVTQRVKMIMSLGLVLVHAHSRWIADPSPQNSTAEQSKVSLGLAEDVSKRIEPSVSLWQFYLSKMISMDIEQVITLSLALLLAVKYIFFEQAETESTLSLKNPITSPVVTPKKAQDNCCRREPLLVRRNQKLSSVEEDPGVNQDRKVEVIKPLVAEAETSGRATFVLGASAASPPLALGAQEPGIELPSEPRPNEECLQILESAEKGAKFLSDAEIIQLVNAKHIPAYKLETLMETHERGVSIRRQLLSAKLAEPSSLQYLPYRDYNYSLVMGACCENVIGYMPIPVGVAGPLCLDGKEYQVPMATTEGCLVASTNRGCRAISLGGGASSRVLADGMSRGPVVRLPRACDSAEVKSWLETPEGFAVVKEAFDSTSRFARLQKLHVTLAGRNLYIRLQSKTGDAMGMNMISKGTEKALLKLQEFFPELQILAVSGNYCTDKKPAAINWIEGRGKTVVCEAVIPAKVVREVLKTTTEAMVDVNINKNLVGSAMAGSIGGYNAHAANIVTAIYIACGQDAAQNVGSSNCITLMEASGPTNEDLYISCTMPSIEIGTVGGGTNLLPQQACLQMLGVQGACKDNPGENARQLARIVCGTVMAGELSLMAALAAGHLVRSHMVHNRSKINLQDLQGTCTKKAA
Experimental: Rat liver microsomes (HMG-CoA reductase) that may be commercially available or prepared with reference to the following method: take out a male rat liver, after washing the male rat liver with a KESD buffer solution, perform 1200 g centrifugation for 15 minutes, take the supernatant, after performing 105000 g centrifugation again for 90 minutes twice, collect centrifugation sediments, add 8.3% glycerol to the centrifugation sediments, heating for 1 hour with a 37° C. warm bath, purify coarse rat liver microsomes with saturated ammonium sulfate, and collect 35-50% of the purified part. The obtained purified part may be stored in a refrigerator at −80° C.
Dissolve 5.0 mg of the compound with Structural Formula (II) prepared in the first embodiment, Compound 4 or Compound 5, and 2.0 mg of lovastatin with 1 mL of a 75% ethanol solution, respectively;
the total volume of measurement system is 250 μL and the concentrations of the constituents are: potassium chloride 200 mM, potassium dihydrogen phosphate 160 mM, ethylenediaminetetraacetic acid 4 mM and dithiothreitol 10 mM; the concentrations of two substrates NADPH and HMG-CoA are respectively 200 μM and 50 μM, pH6.8, enzyme 30 μL.
Add an ethanol solution with 5 μL of the compound prepared by the first embodiment or an ethanol solution of Compound 4 or an ethanol solution of Compound 5 to a test group, add 5 μL of a lovastatin ethanol solution to a positive control group; add 5 μL of 75% ethanol to a blank control group; detect dynamic change of OD340 on a Versamax microplate reader at 37° C., and evaluate the HMG-CoA reductase activity level by detecting the decreasing speed (represented by a slope value) of OD340 within 5 minutes to further evaluate the enzyme inhibitory activity level, the result is as shown in Table 1.

[7] = final concentration in the system 100 μg/mL
[8] = final concentration in the system 40 μg/mL

Row | Slope (HMG-CoA reductase; [8]) | Inhibitory rate (%) (HMG-CoA reductase; [8]) | Structure (SMILES) | IC50 [1] | IC50 [2] | IC50 [3] | IC50 [4] | IC50 [5] | IC50 [6] | Slope (HMG-CoA reductase; [7]) | Inhibitory rate (%) (HMG-CoA reductase; [7])
1 |  |  | C[C@@H](C(O)C1OC2C[C@@H]3[C@](C)(CC[C@H]4[C@@]35C=CC3(CC(O)CC[C@]43C)OO5)[C@H]2[C@@]1(C)O)C(C)(C)O (stereo partly shown) [Compound with Structural Formula (II), 5,8-epidioxy-16,22-epoxy-ergosta-6-en-3,20,23,25-tetrol] | ~400 µg/mL | ~320 µg/mL | ~460 µg/mL | ~400 µg/mL | ~200 µg/mL | ~350 µg/mL | 10.7 | 31.4%
2 | 9.0 | 42.3% | CC[C@H](C)C(=O)O[C@H]1C[C@@H](C)C=C2C=C[C@H](C)[C@H](CC[C@@H]3C[C@@H](O)CC(=O)O3)[C@H]21 [Lovastatin, lovastatin, reference compound] |  |  |  |  |  |  |  | 
